According to patent US20230312528A1, “2-OXO-IMIDAZOLIDINE-4-CARBOXAMIDES AS NAV1.8 INHIBITORS” (Merck Sharp & Dohme LLC, priority 2020, published 2023):

Biological target: human NaV1.8 (Homo sapiens (Human), UniProt Q9Y5Y9)
Assay: Nav1.8 Qube automated patch-clamp assay
Type: cell-based
Conditions: human NaV1.8 stably expressed in HEK 293 cells; automated 384-well patch-clamp; resting or inactivated state not specified
In short: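 IC50 values from Hill-equation fits of offline percent inhibition: the 1st pulse gave resting and the 10th pulse inactivated-state inhibition. Stimulus was a 10 s, 1 Hz train to 10 mV (holding −90 mV, −67 mV interpulse) applied at room temperature to HEK293 cells stably expressing human NaV1.8 (Qube).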

human NaV1.8, sequence (Q9Y5Y9 whole entry): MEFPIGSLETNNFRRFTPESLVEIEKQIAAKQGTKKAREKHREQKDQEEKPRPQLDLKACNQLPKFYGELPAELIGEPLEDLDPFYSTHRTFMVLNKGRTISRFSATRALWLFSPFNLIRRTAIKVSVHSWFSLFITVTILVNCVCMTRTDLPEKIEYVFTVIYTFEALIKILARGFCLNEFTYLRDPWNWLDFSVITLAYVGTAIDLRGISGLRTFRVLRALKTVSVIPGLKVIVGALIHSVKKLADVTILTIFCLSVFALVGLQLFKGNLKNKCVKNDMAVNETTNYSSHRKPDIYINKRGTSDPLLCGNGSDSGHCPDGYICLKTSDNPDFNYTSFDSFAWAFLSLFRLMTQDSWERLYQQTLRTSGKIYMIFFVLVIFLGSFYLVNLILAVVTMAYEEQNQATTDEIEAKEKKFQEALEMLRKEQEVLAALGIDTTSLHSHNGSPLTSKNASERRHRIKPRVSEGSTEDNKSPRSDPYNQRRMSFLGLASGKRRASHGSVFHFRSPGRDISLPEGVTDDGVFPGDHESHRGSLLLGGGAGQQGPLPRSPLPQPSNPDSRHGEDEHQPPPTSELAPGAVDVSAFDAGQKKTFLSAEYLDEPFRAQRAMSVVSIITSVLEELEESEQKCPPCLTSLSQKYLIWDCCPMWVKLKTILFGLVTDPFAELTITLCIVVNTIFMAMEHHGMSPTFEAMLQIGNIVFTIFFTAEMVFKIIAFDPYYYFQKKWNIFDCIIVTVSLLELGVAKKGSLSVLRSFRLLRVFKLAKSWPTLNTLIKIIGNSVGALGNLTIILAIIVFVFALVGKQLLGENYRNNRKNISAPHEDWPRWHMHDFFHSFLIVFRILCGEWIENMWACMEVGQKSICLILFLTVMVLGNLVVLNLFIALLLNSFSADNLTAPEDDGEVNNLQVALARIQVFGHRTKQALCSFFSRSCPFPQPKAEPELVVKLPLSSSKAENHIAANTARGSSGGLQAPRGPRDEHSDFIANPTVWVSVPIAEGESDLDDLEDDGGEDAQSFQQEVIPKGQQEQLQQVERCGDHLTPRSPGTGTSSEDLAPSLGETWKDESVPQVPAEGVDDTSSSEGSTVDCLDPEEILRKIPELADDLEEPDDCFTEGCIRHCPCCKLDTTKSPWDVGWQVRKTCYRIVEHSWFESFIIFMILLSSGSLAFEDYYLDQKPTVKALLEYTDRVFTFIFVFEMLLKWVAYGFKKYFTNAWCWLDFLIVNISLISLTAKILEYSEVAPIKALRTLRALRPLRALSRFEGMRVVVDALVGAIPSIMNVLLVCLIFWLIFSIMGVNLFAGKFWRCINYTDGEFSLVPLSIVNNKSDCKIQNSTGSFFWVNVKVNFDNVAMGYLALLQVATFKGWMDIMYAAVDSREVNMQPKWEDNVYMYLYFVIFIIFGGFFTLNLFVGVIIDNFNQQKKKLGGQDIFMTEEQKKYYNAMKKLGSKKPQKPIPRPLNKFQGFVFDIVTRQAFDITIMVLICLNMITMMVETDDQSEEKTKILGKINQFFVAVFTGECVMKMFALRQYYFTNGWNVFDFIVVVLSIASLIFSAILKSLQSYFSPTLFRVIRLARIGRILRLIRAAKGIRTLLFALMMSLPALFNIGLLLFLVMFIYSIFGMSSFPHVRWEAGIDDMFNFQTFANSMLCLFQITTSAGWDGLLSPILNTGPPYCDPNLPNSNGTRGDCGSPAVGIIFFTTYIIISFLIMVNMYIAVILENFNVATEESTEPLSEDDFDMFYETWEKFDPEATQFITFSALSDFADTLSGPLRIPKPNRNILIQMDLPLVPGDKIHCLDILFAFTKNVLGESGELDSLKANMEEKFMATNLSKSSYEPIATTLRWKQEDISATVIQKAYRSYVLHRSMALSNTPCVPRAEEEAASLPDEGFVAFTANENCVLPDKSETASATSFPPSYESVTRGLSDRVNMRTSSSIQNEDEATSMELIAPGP

SMILES	IC50 [nM]
O=C1NC[C@@H](C(=O)NC(COc2ccc(C(F)(F)F)nc2)c2ccc(F)c(Cl)c2)N1 (mixture of isomers) [Example 53, (4S)-N-(1-(3-chloro-4-fluorophenyl)-2-((6-(trifluoromethyl)pyridin-3-yl)oxy)ethyl)-2-oxoimidazolidine-4-carboxamide]	219
O=C1NC[C@@H](C(=O)NC(CC2CCC(C(F)(F)F)CC2)c2ccc(F)c(Cl)c2F)N1 (single isomer, unassigned) [Example 23C, (S)—N—((R or S)-1-(3-chloro-2,4-difluorophenyl)-2-((cis or trans)-4-(trifluoromethyl)cyclohexyl)ethyl)-2-oxoimidazolidine-4-carboxamide]	62
O=C1NC[C@@H](C(=O)NC(c2ccc(F)c(Cl)c2F)C2COC(C(F)(F)F)C2)N1 (single isomer, unassigned) [Example 79A, (S)-N-((R or S)-(3-chloro-2,4-difluoro-phenyl)((cis or trans)-5-(trifluoro-methyl)-tetrahydrofuran-3-yl)methyl)-2-oxoimidazolidine-4-carboxamide]	39
O=C1NC[C@@H](C(=O)NC(c2ccc(F)c(Cl)c2F)C2CCCCN2CC(F)(F)F)N1 (single isomer, unassigned) [Example 58B, (S)-N-((R or S)-(3-chloro-2,4-difluorophenyl) ((R or S)-1-(2,2,2-trifluoroethyl)piperidin-2-yl)methyl)-2-oxoimidazolidine-4-carboxamide]	35
O=C1NC[C@@H](C(=O)NC(c2cnc(OC(F)F)nc2)c2ccc(F)c(Cl)c2F)N1 (single isomer, unassigned) [Example 55A, (4S)—N—((R or S)-(3-chloro-2,4-difluorophenyl)(2-(difluoromethoxy)pyrimidin-5-yl)methyl)-2-oxoimidazolidine-4-carboxamide]	79
O=C1NC[C@@H](C(=O)NC(c2ccc(Cl)cc2)c2cnc(C(F)(F)F)[nH]2)N1 (single isomer, unassigned) [Example 22A, (S)—N—((R or S)-(4-chlorophenyl)(2-(trifluoromethyl)-1H-imidazol-4-yl)methyl)-2-oxoimidazolidine-4-carboxamide]	373
N#Cc1cc(C(NC(=O)[C@@H]2CNC(=O)N2)c2ccc(OC(F)(F)F)cc2)ccc1Cl (single isomer, unassigned) [Example 57A, (S)-N-((R or S)-(4-chloro-3-cyanophenyl)(4-(trifluoromethoxy)phenyl)methyl)-2-oxoimidazolidine-4-carboxamide]	3.5
C[C@@H]1C[C@H](C(NC(=O)[C@@H]2CNC(=O)N2)c2ccc(F)c(Cl)c2)C[C@H](C)N1CC(F)(F)F (single isomer, unassigned) [Example 15B, (S)-N-((R or S)-(3-chloro-4-fluoro-phenyl)(cis-2,6-dimethyl-1-(2,2,2-trifluoroethyl)piperidin-4-yl)methyl)-2-oxoimidazolidine-4-carboxamide]	965
CC1(C)CC(C(NC(=O)[C@@H]2CNC(=O)N2)c2ccc(Cl)cc2)CCN1CC(F)(F)F (single isomer, unassigned) [Example 91A, (4S)—N—((R or S)(4-chlorophenyl)((R or S)2,2-dimethyl-1-(2,2,2-trifluoroethyl)piperidin-4-yl)methyl)-2-oxoimidazolidine-4-carboxamide]	289
O=C1NC[C@@H](C(=O)NC(c2cnc(OCC(F)(F)F)s2)c2ccc(F)c(Cl)c2F)N1 (single isomer, unassigned) [Example 35A, (S)-N-((R or S)-(3-chloro-2,4-difluorophenyl)(2-(2,2,2-trifluoroethoxy)thiazol-5-yl)methyl)-2-oxoimidazolidine-4-carboxamide]	2.4
O=C1NC[C@@H](C(=O)NC(c2ccc(F)c(Cl)c2)c2ccc(Cl)c(C(F)(F)F)n2)N1 (single isomer, unassigned) [Example 62A, (S)-N-((R or S)-(3-chloro-4-fluorophenyl)(5-chloro-6-(trifluoromethyl)pyridin-2-yl)methyl)-2-oxoimidazolidine-4-carboxamide]	8
CC1(C)CC(C(NC(=O)[C@@H]2CNC(=O)N2)c2ccc(Cl)cc2)CCN1CC(F)(F)F (single isomer, unassigned) [Example 91C, (4S)—N—((R or S)(4-chlorophenyl)((R or S)2,2-dimethyl-1-(2,2,2-trifluoroethyl)piperidin-4-yl)methyl)-2-oxoimidazolidine-4-carboxamide]	2960
O=C1NC[C@@H](C(=O)NC(CC2CCCOC2)c2ccc(F)c(Cl)c2F)N1 (single isomer, unassigned) [Example 26B, (S)-N-((R or S)-1-(3-chloro-2,4-difluorophenyl)-2-((R or S)-tetrahydro-2H-pyran-3-yl)ethyl)-2-oxoimidazolidine-4-carboxamide]	22200
CN1C(=O)NCC1C(=O)NC(c1ccc(Cl)cc1)c1ccc(Cl)cc1 (single isomer, unassigned) [Example 2A, (R or S)—N-(bis(4-chlorophenyl)methyl)-3-methyl-2-oxoimidazolidine-4-carboxamide]	34

The remaining compounds from weak to strong by IC50, led by results:

IC50 [nM]	SMILES
8630	CN1CCC(C(NC(=O)[C@@H]2CNC(=O)N2)c2ccc(F)c(Cl)c2F)CC1C(F)(F)F (single isomer, unassigned) [Example 78C, (S)-N-((R or S)-(3-chloro-2,4-difluoro-phenyl)((cis or trans)-1-methyl-2-(trifluoro-methyl)piperidin-4-yl)methyl)-2-oxoimidazolidine-4-carboxamide]
2330	O=C1NC[C@@H](C(=O)NC(c2ccc(F)c(Cl)c2F)C2COC(C(F)(F)F)C2)N1 (single isomer, unassigned) [Example 79G, (S)-N-((R or S)-(3-chloro-2,4-difluoro-phenyl)((cis or trans)-5-(trifluoromethyl)tetrahydrofuran-3-yl)methyl)-2-oxoimidazolidine-4-carboxamide]
965	O=C1NC[C@@H](C(=O)NC(c2ccc(F)c(Cl)c2)[C@@H]2CC[C@H]2C(F)(F)F)N1 (single isomer, unassigned) [Example 67B, (S)-N-((R or S)-(3-chloro-4-fluoro-phenyl)(trans-2-(trifluoromethyl)cyclobutyl)methyl)-2-oxoimidazolidine-4-carboxamide]
320	N#Cc1ccc(C(NC(=O)[C@@H]2CNC(=O)N2)c2ccc(F)c(Cl)c2)nc1 (stereo partly drawn) [Example 86, (4S)-N-[(3-chloro-4-fluorophenyl)(5-cyanopyridin-2-yl)methyl]-2-oxoimidazolidine-4-carboxamide]
244	O=C1NC[C@@H](C(=O)NC(c2ccc(F)c(Cl)c2F)C23CC(C(F)(F)F)(C2)C3)N1 (single isomer, unassigned) [Example 27B, (4S)—N—((R or S)-(3-chloro-2,4-difluorophenyl)(3-(trifluoromethyl)bicyclo[1.1.1]pentan-1-yl)methyl)-2-oxoimidazolidine-4-carboxamide]
206	O=C1NC[C@@H](C(=O)NC(c2ccc(OCC(F)(F)F)nn2)c2ccc(F)c(Cl)c2F)N1 (single isomer, unassigned) [Example 50B, (4S)—N—((R or S)-(3-chloro-2,4-difluorophenyl)(6-(2,2,2-trifluoroethoxy)pyridazin-3-yl)methyl)-2-oxoimidazolidine-4-carboxamide]
161	O=C1NC[C@@H](C(=O)NC(COC2CCC(F)(F)CC2)c2ccc(F)c(Cl)c2)N1 (single isomer, unassigned) [Example 29B, (4S)-N-{1-((R or S)-3-chloro-4-fluorophenyl)-2-[(4,4-difluoro-cyclohexyl)oxy]ethyl}-2-oxoimidazolidine-4-carboxamide]
117	O=C1NC[C@@H](C(=O)NC(c2ccc(F)c(Cl)c2)C2Cc3c(Cl)cccc32)N1 (single isomer, unassigned) [Example 70C, (S)-N-((R or S)-(3-chloro-4-fluoro-phenyl)((R or S)-2-chlorobicyclo[4.2.0]-octa-1(6),2,4-trien-7-yl)methyl)-2-oxoimidazolidine-4-carboxamide]
115	Cn1nc(C(NC(=O)[C@@H]2CNC(=O)N2)c2ccc(Cl)cc2)cc1C(F)(F)F (single isomer, unassigned) [Example 75B]
107	O=C1NC[C@@H](C(=O)NC(c2ccc(Cl)cc2)c2ccn3nccc3c2)N1 (single isomer, unassigned) [Example 80B, (S)-N-((R or S)-(4-chlorophenyl) (pyrazolo[1,5-a]pyridin-5-yl)methyl)-2-oxoimidazolidine-4-carboxamide]
63	Cc1nc2cc(C(NC(=O)[C@@H]3CNC(=O)N3)c3ccc(F)c(Cl)c3)ccc2s1 (single isomer, unassigned) [Example 66A, (S)—N—((R or S)-(3-chloro-4-fluorophenyl)(2-methylbenzo[d]thiazol-5-yl)methyl)-2-oxoimidazolidine-4-carboxamide]
24	CN1CCC(C(NC(=O)[C@@H]2CNC(=O)N2)c2ccc(F)c(Cl)c2F)CC1C(F)(F)F (single isomer, unassigned) [Example 78E, (S)-N-((R or S)-(3-chloro-2,4-difluoro-phenyl)((cis or trans)-1-methyl-2-(trifluoro-methyl)piperidin-4-yl)methyl)-2-oxoimidazolidine-4-carboxamide]
5.2	Cn1nc(C(F)(F)F)cc1C(NC(=O)[C@@H]1CNC(=O)N1)c1ccc(F)c(Cl)c1 (single isomer, unassigned) [Example 31A, (S)-N-((R or S)-(3-chloro-4-fluorophenyl)(1-methyl-3-(tri-fluoromethyl)-1H-pyrazol-5-yl)methyl)-2-oxoimidazolidine-4-carboxamide]
0.4	O=C1NC[C@@H](C(=O)NC(c2ccc(F)c(Cl)c2)c2ccc(Cl)c(C(F)(F)F)n2)N1 (single isomer, unassigned) [Example 62B, (S)-N-((R or S)-(3-chloro-4-fluorophenyl)(5-chloro-6-(trifluoromethyl)pyridin-2-yl)methyl)-2-oxoimidazolidine-4-carboxamide]
